From ChEMBL document CHEMBL1148974, “New eudesmane derivatives from Melampodium camphoratum from the Suriname rainforest” (J Nat Prod, 2004) come the findings set out here.

The experiment concerns Plasmodium falciparum. Nature of the experiment: Antimalarial activity as reduced heme degradation in Plasmodium falciparum infected human erythrocytes. Type of experiment: functional, organism-based.

Each structure is given as a SMILES string. Converted amounts (≈) assume the structure as drawn.

As a reminder, the DC50 is the concentration giving 50% degradation. On to `C=C1CCC[C@]2(C)CC[C@@H](C(C)C)[C@H](OC(=O)/C=C/c3ccc(O)cc3)[C@@H]12`, for which the DC50 is more than 200 µg/mL.

In turn, `C=C[C@H]1CN2CC[C@H]1C[C@H]2[C@H](O)c1ccnc2ccc(OC)cc12` [QUININE] displayed a half-maximal degradation concentration (DC50) of 1.3 µg/mL (≈ 4.01 µM).

Compound `C=C1CCC[C@]2(C)CC[C@@H](C(C)C)[C@H](OC(=O)/C=C\c3ccc(OC(C)=O)cc3)[C@@H]12` gave a half-maximal degradation concentration (DC50) of more than 200 µg/mL.

As to `C=C1CCC[C@]2(C)CC[C@@H](C(C)C)[C@H](OC(=O)/C=C/c3ccc(OC(=O)CCCCCCCCCCCCCCC)cc3)[C@@H]12`, the half-maximal degradation concentration (DC50) was determined as 75 µg/mL (≈ 124 µM).

For `C=C1CCC[C@]2(C)CC[C@@H](C(C)C)[C@H](OC(=O)/C=C/c3ccc(OC(=O)CCCCCCCCCCCCCCCCC)cc3)[C@@H]12`, the half-maximal degradation concentration (DC50) was 110 µg/mL (≈ 173 µM).

As for `C=C1CCC[C@]2(C)CC[C@@H](C(C)C)[C@H](OC(=O)/C=C\c3ccc(O)cc3)[C@@H]12`, the half-maximal degradation concentration (DC50) was more than 200 µg/mL.

`C=C1CCC[C@]2(C)CC[C@@H](C(C)C)[C@H](OC(=O)/C=C/c3ccc(OC)cc3)[C@@H]12`: the 50% degradation concentration (DC50) came out at 48 µg/mL (≈ 125 µM).

`C=C1CCC[C@]2(C)CC[C@@H](C(C)C)[C@H](OC(=O)/C=C/c3ccc(OC(=O)CCCCCCC/C=C\CCCCCC)cc3)[C@@H]12`: it took 52 µg/mL (≈ 86 µM) to reach half-maximal degradation (DC50). This DC50 and that of the compound before are within 1.5-fold of each other.
